Laboratory results taken from patent US9815854B2, “3-(3H-imidazo[4,5-B]pyridin-2-yl)-1H-pyrazolo[3,4-C]pyridine and therapeutic uses thereof” (Samumed, LLC, priority 2014, dated 2017).

Legend:
[1] = tested on: primary human fibroblasts derived from IPF patients (LL29 cells); assay: Inhibition of the fibrotic process in TGF-β1-treated primary human fibroblasts from IPF patients (αSMA staining); format: cell-based; settings: Fibroblast, 96 h, TGF-β1 20 ng/mL, 4 days, read-out: Inhibition of fibrosis EC50
In short: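 IPF-derived LL29 lung fibroblasts, 1,500 per well in F12 with 1% FBS, treated with compound (10 μM to […], 0.1% DMSO) and TGF-β1 20 ng/mL for 4 days at 37 °C. αSMA-positive live cells imaged and normalised to TGF-β1 controls; EC50 by nonlinear regression over triplicate wells.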

[2] = tested on: Wnt activity (Sp5-Luc reporter, TCF/LEF binding sites) in SW480 colon carcinoma cells; assay: Sp5-Luc Wnt reporter gene screening assay in SW480 colon carcinoma cells; format: cell-based, human; settings: Homo sapiens
In short: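 SW480 cells stably transduced with a lentiviral luciferase reporter driven by a Sp5 promoter with eight TCF/LEF sites were plated at 10,000/well in 10% FCS medium. Luminescence was normalised to DMSO and IC50 derived by four-parameter fit.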

| Structure (SMILES) | EC50 [1] | IC50 [2] |
| --- | --- | --- |
| CCCCC(=O)Nc1cncc(-c2cc3c(-c4nc5c(-c6ccoc6)ccnc5[nH]4)n[nH]c3cn2)c1 [Compound 304, N-(5-(3-(7-(Furan-3-yl)-3H-imidazo[4,5-b]pyridin-2-yl)-1H-pyrazolo [3,4c]pyridin-5-yl)pyridin-3-yl)pentanamide] | 3.65 µM | 0.0607 µM |
| c1cc(-c2ccoc2)c2nc(-c3n[nH]c4cnc(-c5cncc(CNCC6CCCC6)c5)cc34)[nH]c2n1 [Compound 310, 1-Cyclopentyl-N-((5-(3-(7-(furan-3-yl)-3H-imidazo[4,5-b]pyridin-2-yl)-1H-pyrazolo[3,4-c]pyridin-5-yl)pyridin-3-yl)methyl)methanamine] | 0.641 µM | 0.243 µM |
| CCC(=O)Nc1cncc(-c2cc3c(-c4nc5c(-c6cccs6)ccnc5[nH]4)n[nH]c3cn2)c1 [Compound 313] | 0.039 µM | 0.0717 µM |
| CN(C)c1cncc(-c2cc3c(-c4nc5c(-c6cccs6)ccnc5[nH]4)n[nH]c3cn2)c1 [Compound 319] | 0.075 µM | 0.125 µM |
| CC(C)(C)C(=O)Nc1cncc(-c2cc3c(-c4nc5c(-c6cccs6)ccnc5[nH]4)n[nH]c3cn2)c1 [Compound 320] | 0.025 µM | 0.0426 µM |
| CC(C)Nc1cncc(-c2cc3c(-c4nc5c(-c6cccs6)ccnc5[nH]4)n[nH]c3cn2)c1 [Compound 324, N-Isopropyl-5-(3-(7-(thiophen-2-yl)-3H-imidazo[4,5-b]pyridin-2-yl)-1H-pyrazolo[3,4-c]pyridin-5-yl)pyridin-3-amine] | ≥ 9.99 µM | 0.0585 µM |
| CN(C)Cc1cncc(-c2cc3c(-c4nc5c(-c6cccs6)ccnc5[nH]4)n[nH]c3cn2)c1 [Compound 325, N,N-Dimethyl-1-(5-(3-(7-(thiophen-2-yl)-3H-imidazo[4,5-b]pyridin-2-yl)-1H-pyrazolo[3,4-c]pyridin-5-yl)pyridin-3-yl)methanamine] | 0.254 µM | 0.137 µM |
| O=C(Nc1cncc(-c2cc3c(-c4nc5c(-c6cccs6)ccnc5[nH]4)n[nH]c3cn2)c1)C1CC1 [Compound 331] | 0.319 µM | 0.0831 µM |
| FC1(F)CCN(Cc2cncc(-c3cc4c(-c5nc6c(-c7cccs7)ccnc6[nH]5)n[nH]c4cn3)c2)C1 [Compound 337] | 0.114 µM | 0.0248 µM |
| CC(C)CC(=O)Nc1cncc(-c2cc3c(-c4nc5c(-c6ccc(F)s6)ccnc5[nH]4)n[nH]c3cn2)c1 [Compound 340, N -(5-(3-(7-(5-Fluorothiophen-2-yl)-3H-imidazo[4,5-b]pyridin-2-yl)-1H-pyrazolo[3,4-c]pyridin-5-yl)pyridin-3-yl)-3-methylbutanamide] | 0.767 µM | 0.027 µM |
| Cc1ccc(-c2ccnc3[nH]c(-c4n[nH]c5cnc(-c6cncc(N)c6)cc45)nc23)s1 [Compound 367, 5-(3-(7-(5-Methylthiophen-2-yl)-3H-imidazo[4,5-b]pyridin-2-yl)-1H-pyrazolo[3,4-c]pyridin-5-yl)pyridin-3-amine] | ≤ 0.009 µM | 0.0226 µM |
| Cc1ccc(-c2ccnc3[nH]c(-c4n[nH]c5cnc(-c6cncc(NC(=O)C(C)(C)C)c6)cc45)nc23)s1 [Compound 372, N-(5-(3-(7-(5-Methylthiophen-2-yl)-3H-imidazo[4,5-b]pyridin-1)-1H-pyrazolo[3,4-c]pyridin-5-yl)pyridin-3-yl)pivalamide] | 0.22 µM | 0.0248 µM |
| Cc1ccc(-c2ccnc3[nH]c(-c4n[nH]c5cnc(-c6cncc(NC(=O)C(C)C)c6)cc45)nc23)s1 [Compound 373, N-(5-(3-(7-(5-Methylthiophen-2-yl)-3H-imidazo[4,5-b]pyridin-2-yl)-1H-pyrazolo[3,4-c]pyridin-5-yl)pyridin-3-yl)isobutyramide] | ≤ 0.009 µM | 0.0164 µM |
| Cc1ccc(-c2ccnc3[nH]c(-c4n[nH]c5cnc(-c6cncc(NC(C)C)c6)cc45)nc23)s1 [Compound 376, N-Isopropyl-5-(3-(7-(5-methylthiophen-2-yl)-3H-imidazo[4,5-b]pyridin-2-yl)-1H-pyrazolo[3,4-c]pyridin-5-yl)pyridin-3-amine] | ≥ 9.99 µM | 0.0106 µM |
| Cc1ccc(-c2ccnc3[nH]c(-c4n[nH]c5cnc(-c6cncc(CN7CCCCC7)c6)cc45)nc23)s1 [Compound 379, 3-(7-(5-Methylthiophen-2-yl)-3H-imidazo[4,5-b]pyridin-2-yl)-5-(5-(piperidin-1-ylmethyl)pyridin-3-yl)-1H-pyrazolo[3,4-c]pyridine] | 0.299 µM | 0.18 µM |
| Cc1ccc(-c2ccnc3[nH]c(-c4n[nH]c5cnc(-c6cncc(NC(=O)C7CCCC7)c6)cc45)nc23)s1 [Compound 385] | 0.106 µM | 0.0844 µM |
| CC(=O)c1ccc(-c2ccnc3[nH]c(-c4n[nH]c5cnc(-c6cncc(NC(=O)CC(C)(C)C)c6)cc45)nc23)s1 [Compound 406, N-(5-(3-(7-(5-Acetylthiophen-2-yl)-3H-imidazo[4,5-b]pyridin-2-yl)-1H-pyrazolo[3,4-c]pyridin-5-yl)pyridin-3-yl)-3,3-dimethylbutanamide] | ≥ 9.99 µM | > 10 µM |
| CC(=O)c1ccc(-c2ccnc3[nH]c(-c4n[nH]c5cnc(-c6cncc(NC(=O)C7CCCCC7)c6)cc45)nc23)s1 [Compound 412, N-(5-(3-(7-(5-Acetylthiophen-2-yl)-3H-imidazo[4,5-b]pyridin-2-yl)-1H-pyrazolo[3,4-c]pyridin-5-yl)pyridin-3-yl)cyclohexanecarboxamide] | ≥ 9.99 µM | > 10 µM |
| CS(=O)(=O)NCc1cc(F)cc(-c2ccnc3[nH]c(-c4n[nH]c5cnc(-c6cncc(NC(=O)c7ccccc7)c6)cc45)nc23)c1 [Compound 427, N-(5-(3-(7-(3-Fluoro-5-(methylsulfonamidomethyl)phenyl)-3H-imidazo[4,5-b]pyridin-2-yl)-1H-pyrazolo[3,4-c]pyridin-5-yl)pyridin-3-yl)benzamide] | ≥ 9.99 µM | > 10 µM |
| CCCC(=O)Nc1cncc(-c2cc3c(-c4nc5c(-c6cc(F)cc(CNS(C)(=O)=O)c6)ccnc5[nH]4)n[nH]c3cn2)c1 [Compound 433, N-(5-(3-(7-(3-Fluoro-5-(methylsulfonamidomethyl)phenyl)-3H-imidazo[4,5-b]pyridin-2-yl)-1H-pyrazolo[3,4-c]pyridin-5-yl)pyridin-3-yl)butyramide] | ≥ 9.99 µM | > 10 µM |
| CS(=O)(=O)NCc1cc(F)cc(-c2ccnc3[nH]c(-c4n[nH]c5cnc(-c6cncc(CNCc7ccccc7)c6)cc45)nc23)c1 [Compound 439, N-(3-(2-(5-(5-((Benzylamino)methyl)pyridin-3-yl)-1H-pyrazolo[3,4-c]pyridin-3-yl)-3H-imidazo[4,5-b]pyridin-7-yl)-5-fluorobenzyl)methanesulfonamide] | ≤ 0.009 µM | > 10 µM |
| CS(=O)(=O)NCc1cc(F)cc(-c2ccnc3[nH]c(-c4n[nH]c5cnc(-c6cncnc6)cc45)nc23)c1 [Compound 442, N-(3-Fluoro-5-(2-(5-(pyrimidin-5-yl)-1H-pyrazolo[3,4-c]pyridin-3-yl)-3H-imidazo[4,5-b]pyridin-7-yl)benzyl)methanesulfonamide] | ≥ 9.99 µM | > 10 µM |
| CC(C)Nc1cncc(-c2cc3c(-c4nc5c(-c6cc(F)cc(NCCN(C)C)c6)ccnc5[nH]4)n[nH]c3cn2)c1 [Compound 454, N^1-(3-Fluoro-5-(2-(5-(5-(isopropylamino)pyridin-3-yl)-1H-pyrazolo[3,4-c]pyridin-3-yl)-3H-imidazo[4,5-b]pyridin-7-yl)phenyl)—N^2,N^2-dimethylethane-1,2-diamine] | 0.746 µM | 0.0947 µM |
| CN(C)CCNc1cc(F)cc(-c2ccnc3[nH]c(-c4n[nH]c5cnc(-c6cncc(CNCC7CCCC7)c6)cc45)nc23)c1 [Compound 466, N^1-(3-(2-(5-(5-(((Cyclopentylmethyl)amino)methyl)pyridin-3-yl)-1H-pyrazolo[3,4-c]pyridin-3-yl)-3H-imidazo[4,5-b]pyridin-7-yl)-5-fluorophenyl)—N2,N2-dimethylethane-1,2-diamine] | ≤ 0.009 µM | 1.74 µM |
| Fc1cccc(-c2ccnc3[nH]c(-c4n[nH]c5cnc(-c6cn[nH]c6)cc45)nc23)c1 [Compound 939, 3-(7-(3-Fluorophenyl)-3H-imidazo[4,5-b]pyridin-2-yl)-5-(1H-pyrazol-4-yl)-1H-pyrazolo[3,4-c]pyridine] | 0.014 µM | 0.198 µM |
| Cn1cc(-c2cc3c(-c4nc5c(-c6cccc(F)c6)ccnc5[nH]4)n[nH]c3cn2)cn1 [Compound 940, 3-(7-(3-Fluorophenyl)-3H-imidazo[4,5-b]pyridin-2-yl)-5-(1-methyl-1H-pyrazol-4-yl)-1H-pyrazolo[3,4-c]pyridine] | 0.353 µM | 0.405 µM |
| Cc1ncc(-c2cc3c(-c4nc5c(-c6cccc(F)c6)ccnc5[nH]4)n[nH]c3cn2)n1C [Compound 941] | 1 µM | > 10 µM |
| NC1CN(c2cncc(-c3cc4c(-c5nc6c(-c7cccc(F)c7)ccnc6[nH]5)n[nH]c4cn3)n2)C1 [Compound 942, 1-(6-(3-(7-(3-Fluorophenyl)-3H-imidazo[4,5-b]pyridin-2-yl)-1H-pyrazolo[3,4-c]pyridin-5-yl)pyrazin-2-yl)azetidin-3-amine] | 1.47 µM | 1.49 µM |
| CN(C)CCOc1cncc(-c2cc3c(-c4nc5c(-c6cccc(F)c6)ccnc5[nH]4)n[nH]c3cn2)c1 [Compound 947, 2-((5-(3-(7-(3-Fluorophenyl)-3H-imidazo[4,5-b]pyridin-2-yl)-1H-pyrazolo[3,4-c]pyridin-5-yl)pyridin-3-yl)oxy)-N,N-dimethylethan-1-amine] | ≥ 9.99 µM | 1.6 µM |
